Assay results taken from patent US10786521B2, “Methods and compositions for treatment of COPD diseases” (Shanghai KE Pharmaceutical Co., LTD, priority 2014, dated 2020).

Legend:
[1] = tested on: asthmatic airway constriction in acute asthma mouse model; assay: Airway resistance (Rrs, FlexiVent) in OVA-induced, methacholine-challenged asthma mice; assay type: in vivo, C57BL/6 mice
Protocol: Asthma mice were established as reported previously. Briefly, six to eight-week-old female C57BL/6 mice were carried out by intraperitoneal injection of 100 μg ovalbumin and 4 mg Imject Alum (ThermoFisher Scientific) in total volume of 0.2 mL on days 0 and 14. These mice were then challenged with 1.5%-2% aerosolized ovalbumin for 1 h on days 24, 25 and 26. The efficacy of drugs was evaluated by measuring airway resistance in these mice 24 h after the last challenge.
(§1) The airway resistance was measured through an invasive method as described in previous reports. In brief, the mice were anesthetized with 240 mg/kg Avertin and the trachea was cannulated with an 18-gauge metal needle. Mechanical ventilation (FlexiVent; SCIREQ Inc., Montreal, Canada) was applied at a frequency of 150 breaths per minute, a tidal volume of 10 ml/kg, and positive end-expiratory pressure of 2.5 cm H2O. Prior to methacholine challenge, deep inflation was applied followed by administration of aerosolized PBS to obtain stabilization of airway resistance (Rrs, cmH2O·s/mL). The Rrs after PBS was considered to be the baseline. Then mice were challenged with sequential concentrations of methacholine with a dose of 2.0, 4.0, 8.0, 16, 32 and 64 mg/mL by an ultrasonic nebulizer until reaching bronchoconstrictive phase that was four to five folds greater than baseline. Three minutes after the last dose of methacholine inhalation, the reagents were delivered by the same ultrasonic nebulizer. The Rrs measurements were performed every 30 s throughout the experiments. The negative control for these studies was PBS, because all the solvents for reagents used here were PBS. As a positive control, albuterol (3 μg; Sigma), the most widely used β-agonist as an effective bronchodilator for asthma therapy, was used.
as §1, with “Acute asthma model mice were established as reported previously. Briefly, six to eight-week-old female C57BL/6 mice were carried out by intraperitoneal injection of 100 μg ovalbumin and 4 mg Imject Alum (ThermoFisher Scientific) in total volume of 0.2 mL on days 0 and 14. These mice were then challenged with 1.5%-2% aerosolized ovalbumin for 1 h on days 24, 25 and 26. The efficacy of drugs by measuring airway resistance in these mice 24 h was evaluated after the last challenge. The airway” for “The airway”

[2] = tested on: cytosolic calcium in primary airway smooth muscle cells; assay: Calcium image (Fluo-4) of primary airway smooth muscle cells stimulated with acetylcholine; assay type: cell-based; conditions: 10 μM compound, then 100 μM acetylcholine; around 16 to 18 minutes
Protocol: Primary airway smooth muscle cells were stimulated with 100 μM acetylcholine (ACh) (upper panels), resulting elevation and maintenance of calcium signals (arrow heads indicate typical alteration of the cells) for 8 minutes. After washing out ACh, new buffer containing 10 μM Kudinoside D was added, and then stimulated with 100 μM acetylcholine.
Calcium image (1-3): Ca^2+ signal was measured by recording 488 nm laser excited Fluo-4 fluorescence with a laser confocal microscope (FV-1000, Olympus). After 3 times washing with D-Hanks solution, primary cultured airway smooth muscle cells were loaded with 2.5 μM Fluo-4 AM and 0.02% pluronic acid (F127) in D-Hanks for 30 min at room temperature. Then washed 3 times with D-Hanks, incubated in H-T buffer at 37° C. for 40 min. Ca^2+ signal was measured by recording 488 nm laser excited Fluo-4 fluorescence with a laser confocal microscope (FV-1000, Olympus).

[3] = tested on: permeable (skinned) airway smooth muscle strips; assay: Ca2+-induced sustained contraction of alpha-toxin permeabilized bronchial ring at constant calcium; assay type: cell-based, C57BL/6J mice; conditions: pCa 4.5 elicited contraction
Protocol: To assess the requirement of calcium reduction for kudinoside-mediated relaxation, smooth muscle tissues permeable were made. Briefly, the fresh bronchial ring were separated by sharp dissection from C57BL/6J mice. Following incubation for 10 minutes in H-T buffer, the muscle strips were treated for 5 minutes in Ca^2+-free H-T buffer and for 5 minutes in buffer A (30 mmol/L TES, 0.5 mmol/L dithiothreitol, 50 mmol/L KCl, 5 mmol/L K2EGTA, 150 mmol/L sucrose, pH 7.4), and then were subsequently permeabilized in α-toxin (16,000 units/mL; Sigma) in buffer A for 40 minutes at room temperature.
Treatment with […] ionomycin (Sigma) in buffer A for 10 minutes was used to deplete Ca^2+ stores. Permeable tissues were washed in pCa 9.0 solution (20 mmol/L TES, 4 mmol/L K2EGTA, 5.83 mmol/L MgCl2, 7.56 mmol/L potassium propionate, 3.9 mmol/L Na2ATP, 0.5 mmol/L dithioerythritol, 16.2 mmol/L phosphocreatine, 15 U/mL creatine kinase, pH 6.9), followed by incubation in pCa 4.5 solution (20 mmol/L TES, 4 mmol/L CaEGTA, 5.66 mmol/L MgCl2, 7.53 mmol/L potassium propionate, 3.9 mmol/L Na2ATP, 0.5 mmol/L dithioerythritol, 16.2 mmol/L phosphocreatine, 15 U/mL creatine kinase, pH 6.9) to elicit a sustained Ca^2+-induced contraction. After wash out the solution, permeable muscle strips were then incubated with pCa 5.0 solution and relaxed by adding Kudinoside D dissolved in pCa 5.0 solution.

## C[C@@H]1O[C@@H](O[C@H]2[C@H](O[C@H]3CC[C@@]4(C)C(CC[C@]5(C)C4C=CC4=C6[C@]7(CC[C@](C)(OC7=O)[C@@]6(C)O)CC[C@]45C)C3(C)C)OC[C@H](O)[C@@H]2O[C@@H]2O[C@H](CO)[C@@H](O)[C@H](O)[C@H]2O)[C@H](O)[C@H](O)[C@H]1O (stereo partly shown) [Kudinoside D]
[1]; 0.03 μg inhaled
  reduction of airway resistance, 0.03 μg: slight reduction
[1]; 0.03 μg inhaled, 1 minute
  airway resistance reduced to, at 1 minute after inhalation, 0.03 μg: 69.65±5.87%
[1]; 0.3 μg inhaled
  reduction of airway resistance, 0.3 μg: significant reduction of airway resistance
[1]; 0.3 μg inhaled, 1 minute
  airway resistance reduced to, at 1 minute after inhalation, 0.3 μg: 67.79±6.77%
[1]; 0.3 μg inhaled, 3 minutes
  reduction of airway resistance at 3 minutes after inhalation compared with 3 μg albuterol, 0.3 μg: more reduction of airway resistance than that of 3 μg of albuterol
[1]; 3 μg inhaled
  reduction of airway resistance, 3 μg: significant reduction of airway resistance
[1]; 3 μg inhaled, 1 minute
  airway resistance reduced to, at 1 minute after inhalation, 3 μg: 45.81±6.87%
[1]; 3 μg inhaled, 3 minutes
  reduction of airway resistance at 3 minutes after inhalation compared with 3 μg albuterol, 3 μg: more reduction of airway resistance than that of 3 μg of albuterol
[2]
  cytosolic calcium signal after acetylcholine stimulation: significant reduction of calcium
[3]
  relaxation of sustained Ca2+-induced contraction of skinned muscle strip: could not relax this sustained contraction, and contrarily slightly enhanced it
